Patent EP1285919A1, “C10 Carbonate substituted taxanes as antitumor agents” (Florida State University Research Foundation, Inc., priority 2001, dated 2003)

How the values were obtained:
[1] = test system: MX-1 Human Breast Carcinoma Xenograft; assay: In vivo evaluation of oral administration against MX-1 breast carcinoma xenograft
Method: In Vivo Evaluation of the Oral Administration of Antitumor Compounds Against the MX-1 Human Breast Carcinoma Xenograft
The compounds were prepared in the following vehicle: 90% saline, 5% Cremophor, and 5% ethanol.

[2] = test system: A375 Human Melanoma Xenografts; assay: In vivo evaluation against A375 melanoma xenografts
Method: In Vivo Evaluation of Antitumor Compounds Against A375 Human Melanoma Xenografts
Antitumor compounds were prepared in a vehicle of 5% ethanol, 5% Cremophor and 90% isotonic saline in the manner as described for Solution 1 of Example 10. Taxol (paclitaxel; Bristol Meyers Squibb) and Taxotere (docetaxel; Rhône-Poulenc Rorer) were obtained as the marketed pharmaceutical drugs. The dosing volume was 0.3 ml per 20 g mouse.
Female NCr-nude mice were implanted subcutaneously with 1 mm^3 A375 melanoma fragments in the flank were sorted into treatment groups of six mice each, except the Taxotere treatment group which was a group of seven mice. […] Dosing was initiated on Day 1. The antitumor compounds were given i.v. at an estimated maximum tolerated dose (MTD) appropriate for each agent on a qd x 1 schedule (single administration of compound). The i.v. taxol was given on the qd x 1 schedule as two split doses (one hour between) of 12 mg/kg per split dose (total dose = 24 mg/kg). Taxol was also administered i.p. on a qd x 5 schedule at a daily dose of 18 mg/kg. Taxotere was given i.v. on a qd x 1 schedule at a dose of 70 mg/kg. The vehicle was administered i.v. to control mice in Group 1 on the qd x 1 schedule. The study was terminated on Day 60. Treatment groups are detailed in Table 7.
(§1) The results are summarized in Table 8 and include mean days of survival (MDS), number of toxic deaths, number of survivors, number of complete or partial responses, and number with stable disease. The mean days of survival is the number of days after which a neoplasm reached a size of 2.0 g and the animal was euthanized. A complete response is obtained if the tumor shrinks to a size smaller than its size on Day 1 of the study.

blood cell populations = assay: Effect of oral treatment on blood cell populations, body weight and tumor weight in the MX-1 study; assay type: in vivo, nu/nu mice; settings: Group 3: 73 mg/kg single oral bolus
Method: Antitumor compounds were administered orally in a study to investigate whether such formulations are efficacious against the MX-1 human breast carcinoma xenograft. The compounds were prepared in the following vehicle: 90% saline, 5% Cremophor, and 5% ethanol. Antitumor compound 1771 was formulated as described for Solution 1 in Example 6. Antitumor compound 1781 was formulated as described for Solution 2 in Example 6.
Female nu/nu mice (11-12 weeks of age; implanted subcutaneously with 1 mm^3 MX-1 human breast carcinoma fragments in the flank) were sorted into one control (n=10) and two treatment (n=6) groups (group mean tumor size of 47-49 mg). Treatment groups are detailed in Table 14.
In addition to survival and tumor regression responses, the effect of treatment on blood cell populations was assessed. The major effect of these antitumor compounds on blood cell populations was a marked reduction in the neutrophil cell number. Monocyte depletion correlated fairly well with neutrophil reduction for each antitumor compound. […] There was a correlation between antitumor activity and reduced neutrophil count. In general, toxicity (as determined by neutrophil depletion) and weight loss correlated with efficacy. Importantly, the toxicities observed with the very efficacious antitumor compounds were manageable and reversible; neutrophil count and body weight rebounded from their nadirs in just a few days. Table 15 summarized the weight reduction, neutrophil and monocyte measurements on Day 4, with tumor weight reduction calculated at Day 18: Table 15

[3] = test system: SKMES Human Lung Carcinoma Xenograft; settings: Group 3: 40 mg/kg single oral bolus Day 1, 6 mice, study to Day 60
Method: The compound was administered as a single bolus by the oral route in a study to investigate the efficacy of this compound against the SKMES human lung cancer xenograft.
Female Nu/Nu mice (6-8 weeks of age; implanted with 1 mm^3 SKMES lung carcinoma fragments in the flank) were sorted into four treatment groups of six mice each. SKMES size ranges and group mean SKMES size ranges were 126-448 mg and 238-241 mg, respectively. […] Treatments were administered as a single oral bolus on Day 1, and the study was terminated on Day 60.
as §1, with “in Table 13 and include” for “in Table 8 and include”, “which a SKMES neoplasm reached” for “which a neoplasm reached”, “the tumor is not palpable at the end of the study. A partial response is obtained if the tumor shrinks to” for “the tumor shrinks to”
The total response rate was 100% with four complete responses and two partial responses. The total response rate is defined as the percentage of evaluable animals (excluding deaths due to procedure or toxicity) in a group that experience complete or partial responses at the termination of the study.

[4] = Group 3: 73 mg/kg single oral bolus Day 1, 6 mice, study to Day 63
[5] = Group 4: 72.6 mg/kg i.p. qd x 1, 6 mice, study to Day 60
[6] = Group 2: 24 mg/kg i.v. qd x 1 (two split doses of 12 mg/kg), 6 mice, study to Day 60
[7] = Group 3: 18 mg/kg i.p. qd x 5, 6 mice, study to Day 60

What does the source list for `CCOC(=O)O[C@H]1C(=O)[C@@]2(C)[C@H]([C@H](OC(=O)c3ccccc3)[C@]3(O)C[C@H](OC(=O)[C@H](O)[C@H](C=C(C)C)NC(=O)OC(C)(C)C)C(C)=C1C3(C)C)[C@]1(OC(C)=O)CO[C@@H]1C[C@@H]2O` [Compound 1781]?
Mean Day of Survival (n) ([1]; Group 3: 73 mg/kg single oral bolus Day 1, 6 mice, n=5, 1.5 g endpoint, study to Day 63): 33.3 ± 2.9 (5); Maximum Weight Loss (Day) ([1]; Group 3: 73 mg/kg single oral bolus Day 1, 6 mice, on Day 5): -9.4% (5); Complete Response [1, 4]: 0; Partial Response [1, 4]: 0; Stable Disease [1, 4]: 1; Toxic Deaths [1, 4]: 0; survival versus vehicle controls ([1]; single oral bolus Day 1, for 1771 the other two mice of the group): significant survival extensions; Toxic Deaths ([2]; 1781 i.v. qd x 1 at estimated MTD, six mice): five; Complete Response [2, 5]: 0; Mean Score [2, 5]: 0.5 ± 0.5; Partial Response [2, 5]: 0; Stable Disease [2, 5]: 0; Survivors [2, 5]: 0; Toxic Deaths [2, 5]: 5; mean group weight losses ([2]; mouse, in vivo, iv): 20-30%; Monocytes (K/µL) (blood cell populations; Day 4): 0.101 K/µL; Neutrophils (K/µL) (blood cell populations; Day 4): 0.117 K/µL; % Reduction (Neutrophils) (blood cell populations; Day 4, vs vehicle): 87.2%; Weight (blood cell populations; MX-1 tumor weight, Day 18): 275.3 mg; % Reduction (Weight) (blood cell populations; tumor weight reduction calculated at Day 18, vs vehicle): 68.3%

With `CC(=O)O[C@H]1C(=O)[C@@]2(C)[C@H]([C@H](OC(=O)c3ccccc3)[C@]3(O)C[C@H](OC(=O)[C@H](O)[C@@H](NC(=O)c4ccccc4)c4ccccc4)C(C)=C1C3(C)C)[C@]1(OC(C)=O)CO[C@@H]1C[C@@H]2O` [Taxol] as the compound, how does the “MDS (n)” value ([3]; n=6, 2.0 g endpoint) read?
The value was 13.2 ± 1.4(6) days.

And the “% Total Response” value [3]?
The value was 0%.

What about the “Complete Response” value [3] of the same compound?
The value was 0.

What about the “Partial Response” value [3] of the same compound?
The value was 0.

And the “Stable Disease” value [3]?
The value was 0.

And the Survivors [3]?
The Survivors was 0.

And the “Toxic Deaths” value [3]?
The value was 0.

And the “MDS (n)” value ([2]; Group 2: 24 mg/kg i.v. qd x 1 (two split doses of 12 mg/kg), 6 mice, n=4, 2.0 g endpoint, study to Day 60)?
Its value is 18.1 ± 0.6 (4) days.

And the “Complete Response” value [2, 6]?
Its value is 0.

What about the “Mean Score” value [2, 6] of the same compound?
Its value is 0.8 ± 0.3.

And the “Partial Response” value [2, 6]?
The value was 0.

And the “Stable Disease” value [2, 6]?
The value was 0.

And the Survivors [2, 6]?
The Survivors was 0.

What about the “Toxic Deaths” value [2, 6] of the same compound?
The value was 2.

And the “Complete Response” value [2, 7]?
The value was 0.

What about the “Mean Score” value [2, 7] of the same compound?
The value was 0 ± 0.

What about the “Partial Response” value [2, 7] of the same compound?
Its value is 0.

And the “Stable Disease” value [2, 7]?
The value was 0.

What about the Survivors [2, 7] of the same compound?
The Survivors was 0.

And the “Toxic Deaths” value [2, 7]?
Its value is 6.

And the “animals died of toxicity” value ([2]; Taxol 18 mg/kg i.p. qd x 5, six mice)?
The value was “six”.

And the “survival extension compared to Group 1 controls” value ([2]; i.v. qd x 1, Taxol 24 mg/kg, Taxotere 70 mg/kg)?
Its value is 26%.

What about the MDS ([2]; i.v. qd x 1, Taxol 24 mg/kg, Taxotere 70 mg/kg, 2.0 g cut-off) of the same compound?
The MDS was 18.1 days.
